Reference: ChEMBL document CHEMBL3886897, “Macrocyclic indole derivatives useful as hepatitis C virus inhibitors” (2016)

Assays:
[1] = target: RNA-directed RNA polymerase (Hepacivirus hominis) (UniProt O39930)
[2] = target: RNA-directed RNA polymerase (Hepacivirus hominis) (UniProt O39930); remark: listed apart in the source
[3] = target: RNA-directed RNA polymerase (Hepacivirus hominis) (UniProt O39930); remark: listed apart in the source
[4] = target: RNA-directed RNA polymerase (Hepacivirus hominis) (UniProt O39930); remark: listed apart in the source
[5] = target: RNA-directed RNA polymerase (Hepacivirus hominis) (UniProt O39930); remark: listed apart in the source
[6] = target: RNA-directed RNA polymerase (Hepacivirus hominis) (UniProt O39930); remark: listed apart in the source
[7] = target: RNA-directed RNA polymerase (Hepacivirus hominis) (UniProt O39930); remark: listed apart in the source
[8] = target: RNA-directed RNA polymerase (Hepacivirus hominis) (UniProt O39930); remark: listed apart in the source
[9] = target: RNA-directed RNA polymerase (Hepacivirus hominis) (UniProt O39930); remark: listed apart in the source
[10] = target: RNA-directed RNA polymerase (Hepacivirus hominis) (UniProt O39930); remark: listed apart in the source

Chain of RNA-directed RNA polymerase (Hepacivirus hominis) (O39930 1-591): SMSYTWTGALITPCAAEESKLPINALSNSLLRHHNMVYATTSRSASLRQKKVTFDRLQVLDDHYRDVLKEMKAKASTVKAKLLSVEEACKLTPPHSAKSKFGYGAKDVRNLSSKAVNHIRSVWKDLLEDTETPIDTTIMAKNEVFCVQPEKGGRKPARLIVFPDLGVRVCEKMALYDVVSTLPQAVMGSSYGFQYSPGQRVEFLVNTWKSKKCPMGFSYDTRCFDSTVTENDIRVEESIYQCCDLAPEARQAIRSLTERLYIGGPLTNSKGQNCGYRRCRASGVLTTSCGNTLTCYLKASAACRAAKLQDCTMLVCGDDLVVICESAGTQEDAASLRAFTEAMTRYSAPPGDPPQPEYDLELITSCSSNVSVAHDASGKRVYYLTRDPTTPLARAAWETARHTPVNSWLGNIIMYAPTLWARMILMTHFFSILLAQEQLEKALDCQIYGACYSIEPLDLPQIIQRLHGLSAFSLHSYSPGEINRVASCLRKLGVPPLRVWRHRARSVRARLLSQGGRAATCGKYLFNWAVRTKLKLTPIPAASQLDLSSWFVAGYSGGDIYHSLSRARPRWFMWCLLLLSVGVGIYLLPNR

Structure (SMILES): COc1ccc2c(c1)C=C1Cn3c-2c(C2CCCCC2)c2ccc(cc23)C(=O)NS(=O)(=O)N(C)CCCCNC1=O
- k off [1]: 4.1e-05 s⁻¹

Structure (SMILES): CN1CCCCN(C)S(=O)(=O)NC(=O)c2ccc3c(C4CCCCC4)c4n(c3c2)CC(=Cc2ccc(Cl)cc2-4)C1=O
- k off [1]: 0.0037 s⁻¹

Structure (SMILES): COc1ccc2c(c1)C(C)=C1Cn3c-2c(C2CCCCC2)c2ccc(cc23)C(=O)NS(=O)(=O)N(C)CCOCCN(C)C1=O
- k off [1]: 3.6e-05 s⁻¹

Structure (SMILES): CN1CCCCCNC(=O)C2=Cc3ccc(Cl)cc3-c3c(C4CCCCC4)c4ccc(cc4n3C2)C(=O)NS1(=O)=O
- k off [1]: 0.0038 s⁻¹

Structure (SMILES): COc1ccc2c(c1)C=C1Cn3c-2c(C2CCCCC2)c2ccc(cc23)C(=O)NS(=O)(=O)N(C)CCCCN(C)C1=O
- k off [1]: 4.8e-05 s⁻¹

Structure (SMILES): COc1ccc2c(c1)C=C1Cn3c-2c(C2CCCCC2)c2ccc(cc23)C(=O)NS(=O)(=O)N(C(C)C)CCCCN(C)C1=O
- k off [1]: 6.6e-05 s⁻¹

Structure (SMILES): COc1ccc2c(c1)C=C1Cn3c-2c(C2CCCCC2)c2ccc(cc23)C(=O)NS(=O)(=O)N(C)CCOCCN(C)C1=O
- k off [2]: 0.022 s⁻¹
- k off [1]: 9e-05 s⁻¹
- k off [3]: 0.00084 s⁻¹
- k off [4]: 7.6e-05 s⁻¹
- k off [5]: 0.00015 s⁻¹
- k off [6]: 0.00013 s⁻¹
- k off [7]: 0.00015 s⁻¹
- k off [8]: 0.022 s⁻¹
- k off [9]: 0.00097 s⁻¹
- k off [10]: 0.0001 s⁻¹

Structure (SMILES): COc1ccc2c(c1)C=C1Cn3c-2c(C2CCCCC2)c2ccc(cc23)C(=O)NS(=O)(=O)NCCCCN(C)C1=O
- k off [1]: 0.00031 s⁻¹

Structure (SMILES): COc1ccc2c(c1)C(C)=C1Cn3c-2c(C2CCCCC2)c2ccc(cc23)C(=O)NS(=O)(=O)N(C)CCCCN(C)C1=O
- k off [1]: 0.00016 s⁻¹
